Assay results from patent publication US11439657B2, “Cancer stem cell growth inhibitor using miRNA” (CancerStem Tech Inc., priority 2017, dated 2022).
Entries after “also recorded” stand apart in the source; their conditions may differ.

Columns and labels:
[1] = test system: cancer stem cell population (ZsGreen+) established from pancreatic cancer cell line Panc-1; test: Screening of miRNAs: cell count (cell viability) of the cancer stem cell population after transfection; type: cell-based, human; conditions: miRNA 10 pmol/well, lipofectamin 2000, cells counted 48 and 72 hours later, FIG. 4
Excerpt: A cancer stem cell line was established by transducing a pancreatic cancer cell line (Panc-1) with an ODC (Ornithine Decarboxylase)-Degron system capable of visualizing low metabolism that is a property of cancer stem cells using a retrovirus vector (FIG. 1a). The base sequence coding the used ODC-Degron is as set forth in SEQ ID NO: 10. Usually, cancer stem cells are so 26s proteasome hypometabolic that they cannot degrade the introduced fluorescently labeled Ornithine Decarboxylase Degron, and thus the fluorescent protein sufficiently accumulates to provide visualization.
However, even when the ODC-degron system was introduced into the pancreatic cancer cell line Panc-1, only about 0.06% cells emitting fluorescence (green) were obtained in total. With such a small number of cancer stem cells, a series of experiments including drug screening cannot be performed. Accordingly, further enrichment of cancer stem cells provided a cancer stem cell population in which cells having observed fluorescent coloring (i.e., cancer stem cells) accounted for about 81.18% in total (FIG. 1b). The obtained cancer stem cell population was designated as ZsGreen+.
A cell suspension prepared by suspending the cancer stem cell population (ZsGreen+) in a medium (DMEM medium containing 10% by volume FBS) was seeded in each well of a 24-well plate at a density of 5000 to 10000 cells/well, followed by culture at 37° C. overnight. Thereafter, according to the lipofectamin 2000 protocol, each miRNA was transfected at 10 pmol/well, and 48 hours and 72 hours later, the cells were counted. In addition, tests were also conducted under the same condition on a case where the miRNA was not introduced (untreated group, control), a case where has-miR-34a (SEQ ID NO: 8) was used (positive control) in place of the selected miRNA, and a case where a control miRNA (SEQ ID NO: 9) was used (NC1, negative control) in place of the selected miRNA. In addition, for comparison, the non-cancer stem cell population (ZsGreen−) was used in place of the cancer stem cell population (ZsGreen+) to conduct tests under the same condition.
The ratio of the number of cells under each condition to the number of control cells into which the miRNA was not introduced (cell viability, %) was determined.

[2] = test system: human large bowel cancer cells (HT29 line); test: Drug sensitivity in combination with oxaliplatin (cell viability); type: cell-based; conditions: miRNA 50 nM, oxaliplatin 0-128 μM for 72 hours, compared to only oxaliplatin and to control plus oxaliplatin, FIG. 16
Procedure: A cell suspension prepared by suspending human large bowel cancer cells (HT29 line) in RPMI medium was seeded in each well of a 6-well plate at 3×10^5 cells/well, and a mixture of lipofectamin RNAiMAX Regent (final concentration in well: 0.03 μL/well) and hsa-miR-3065-3p (final concentration in well: 50 nM) was further added, followed by culture for 1 day. Then, cells were recovered and suspended in RPMI medium, and were seeded in each well of a 96-well plate at 3×10^3 cells/well, followed by culture for 2 days. Thereafter, oxaliplatin was added to each well at 0, 2, 4, 8, 16, 32, 64 or 128 μM, followed by additional culture for 72 hours. After culture, living cells in each well were counted by GloMax-Multi Detection System (Promega Corporation). When the number of living cells under a condition where oxaliplatin was not added was 100%, the ratio of the number of living cells under each condition (cell viability, %) was determined. In addition, tests were also performed under the same condition on a case where a control miRNA (SEQ ID NO: 9) was used (control miRNA, negative control) in place of hsa-miR-3065-3p, and on a case where no miRNA was added.

[3] = test system: human large bowel cancer cells (DLD1 line); test: Infiltration assay (Matrigel Invasion Chambers); type: cell-based; conditions: 20 pmol/cell culture insert, 48 hours, versus control miRNA, FIG. 15
Procedure: The infiltration assay was performed using BD Matrigel Invasion Chambers, 12 Chambers per 24-Well Plate (BD Biosciences). First, […] of RPMI medium (containing 10% by volume FBS) was added in the wells of a companion plate. Furthermore, in a cell culture insert having a Matrigel basement membrane, a mixture of human large bowel cancer cells (DLD1 line) at 1×10^6 cells/well, lipofectamin RNAiMAX Regent (final concentration in the cell culture insert: 2 μL/ml) and hsa-miR-3065-3p (final concentration in the cell culture insert: 20 pmol/cell culture insert) was added, followed by culture for 48 hours. Thereafter, the cell culture insert was removed, and cells adhering to the outside of the Matrigel basement membrane were fixed with formalin and then stained with hematoxylin to count the cells migrated to the outside of the Matrigel basement membrane. In addition, tests were also performed under the same condition on a case where a control miRNA (SEQ ID NO: 9) was used (control miRNA, negative control) in place of hsa-miR-3065-3p.

[4] = test system: human large bowel cancer cells (DLD1 line); test: Wound healing assay; type: cell-based; conditions: 20 pmol/well, wound area at 24 and 48 hours, compared to the negative control, FIG. 17
Procedure: Wound healing assay was performed using Culture-Insert (NIPPON Genetics Co, Ltd). In each well of a 24-well plate, 70 μl of cell suspension (4.9×10^4 cells/well) prepared by suspending human large bowel cancer cells (DLD1 line) in RPMI medium (containing 10% by volume FBS) and an insert that could create a constant gap of 0.5±0.05 mm in width between cells were placed, followed by culture for 1 day, so that a single layer of cells and an area where there is no cell (wound area) corresponding to the gap were formed at the bottom of the well. Then, the insert and culture supernatant were remove, 500 μl of DMEM medium (serum free) was added to each well, and further a mixture of lipofectamin RNAiMAX Regent (final concentration in well: 2 μl/well) and hsa-miR-3065-3p (final concentration in well: 20 pmol/well) was added, followed by culture for 1 day. Thereafter, the medium was changed to RPMI medium (containing 10% by volume FBS), followed by culture for 48 hours. The culture using RPMI medium (containing 10% by volume FBS) had the medium replaced with a fresh medium at 24 hours after the start of culture. The area of wound area was determined at 0, 24 and 48 hours from the start of culture using RPMI medium (containing 10% by volume FBS). When the wound area at 0 hour from the start of culture was 100%, the percentages of wound area at 24 and 48 hours after culture were determined. […]

| Substance | proliferation inhibitory effect on cancer stem cells (cell viability) [1] | number of living cells (cell viability) on treatment with both hsa-miR-3065-3p and oxaliplatin [2] | migration ability of human large bowel cancer cells (cells migrated to the outside of the Matrigel basement membrane) [3] | decrease in wound area (migration) [4] |
| --- | --- | --- | --- | --- |
| hsa-miR-136-5p: human-derived miR-136-5p; base sequence set forth in SEQ ID NO: 1 as mature miRNA (ACUCCAUUUGUUUUGAUGAUGGA; listed as RNA, chemistry not given here; listed as Homo sapiens) | effectively suppress proliferation of cancer stem cells; also recorded: prominent proliferation inhibitory effect | – | – | – |
| hsa-miR-3065-3p: human-derived miR-3065-3p; base sequence set forth in SEQ ID NO: 2 as mature miRNA (UCAGCACCAGGAUAUUGUUGGAG; listed as RNA, chemistry not given here; listed as Homo sapiens) | effectively suppress proliferation of cancer stem cells; also recorded: prominent proliferation inhibitory effect | significantly reduce the number of living cells | able to inhibit the migration ability | significantly suppressed |
